Measured values from patent publication US20250353891A1 (MEDIMMUNE LIMITED, priority 2022, published 2025).
Starred links: 1 amine or outer side, 2 acyl side, 3 side chain; linkers in the order of their positions; H or OH if unused. Non-standard residues stand in square brackets, D forms with d. Residues, ends and D or L forms follow the SMILES beside them. Groups on a side chain read outwards from the residue. *: point of attachment. C20 diacid = O=C(O)CCCCCCCCCCCCCCCCCCC(=O)*; C18 diacid = O=C(O)CCCCCCCCCCCCCCCCC(=O)*; γGlu = O=C(O)[C@H](CCC(=O)[*:2])N[*:1]; αMeF = C[C@](N)(Cc1ccccc1)C(=O)O; AEEA = NCCOCCOCC(=O)O; Aib = CC(C)(N)C(=O)O

Legend:
[1] = target: human GLP-1 receptor (hGLP-1R) (Homo sapiens, UniProt P43220); experiment: cAMP production (HTRF) in CHO cells expressing hGLP-1R; assay type: cell-based; parameters: expressed in transfected cells; conditions: for EC50: Table 7, peptides modified at position 20, cAMP in CHO hGLP-1R cells, geometric mean, read-out: hGLP-1R EC50; for % Relative Potency Ratio: Table 7, % GLP-1R activity relative to GLP-1 / % GlucR activity relative to glucagon
Procedure, shortened: (§1)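 Potency values represent EC50 from 4-parameter logistic curves of HTRF % Delta F signal. Receptor-expressing CHO cells (hGCGR 2×10^5 cells/mL, hGLP-1R 1×10^5 cells/mL) were exposed for 30 min at room temperature before two-step cAMP detection.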

[2] = target: human glucagon receptor (hGCGR) (Homo sapiens, UniProt P47871); experiment: cAMP production (HTRF) in CHO cells expressing hGCGR; assay type: cell-based; parameters: expressed in transfected cells; conditions: Table 7, peptides modified at position 20; cAMP in CHO hGCGR cells; geometric mean; read-out: hGluc-R EC50
Procedure, shortened: as §1

human GLP-1 receptor (hGLP-1R), sequence (P43220 24-463): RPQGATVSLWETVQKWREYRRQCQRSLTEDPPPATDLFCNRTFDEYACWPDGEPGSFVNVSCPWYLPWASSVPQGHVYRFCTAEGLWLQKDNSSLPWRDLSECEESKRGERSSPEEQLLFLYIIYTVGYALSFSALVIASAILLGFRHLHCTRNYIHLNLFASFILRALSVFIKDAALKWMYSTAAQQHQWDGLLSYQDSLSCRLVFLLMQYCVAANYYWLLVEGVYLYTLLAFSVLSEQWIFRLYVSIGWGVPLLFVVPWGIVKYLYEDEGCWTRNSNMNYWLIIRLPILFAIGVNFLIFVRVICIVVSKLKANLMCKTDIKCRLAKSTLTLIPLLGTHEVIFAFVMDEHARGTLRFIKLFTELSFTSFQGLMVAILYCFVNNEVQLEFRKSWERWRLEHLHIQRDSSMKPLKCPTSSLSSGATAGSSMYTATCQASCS
human glucagon receptor (hGCGR), sequence (P47871 26-477): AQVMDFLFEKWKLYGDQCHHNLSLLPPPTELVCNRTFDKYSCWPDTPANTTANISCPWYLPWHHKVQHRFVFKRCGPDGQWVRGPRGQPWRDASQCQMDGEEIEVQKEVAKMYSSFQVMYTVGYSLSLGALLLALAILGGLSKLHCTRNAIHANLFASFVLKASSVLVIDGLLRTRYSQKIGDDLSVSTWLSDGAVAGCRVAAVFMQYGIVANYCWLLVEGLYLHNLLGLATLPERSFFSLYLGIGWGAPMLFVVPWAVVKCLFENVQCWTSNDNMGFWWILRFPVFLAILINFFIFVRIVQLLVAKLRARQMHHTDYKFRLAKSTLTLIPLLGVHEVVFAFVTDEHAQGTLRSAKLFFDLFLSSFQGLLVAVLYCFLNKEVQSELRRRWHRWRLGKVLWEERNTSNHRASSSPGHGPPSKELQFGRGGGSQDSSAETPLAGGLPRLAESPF

Row | SMILES | EC50 [1] [nM] | % Relative Potency Ratio [1] | EC50 [2] [nM]
1 | CC[C@H](C)[C@H](NC(=O)C(C)(C)NC(=O)[C@H](CCC(N)=O)NC(=O)[C@@H](NC(=O)[C@](C)(Cc1ccccc1)NC(=O)[C@H](CC(=O)O)NC(=O)[C@H](CCCCNC(=O)COCCOCCNC(=O)COCCOCCNC(=O)CC[C@H](NC(=O)CCCCCCCCCCCCCCCCC(=O)O)C(=O)O)NC(=O)[C@H](C)NC(=O)[C@H](C)NC(=O)[C@H](CCCNC(=N)N)NC(=O)[C@H](CO)NC(=O)[C@H](CC(=O)O)NC(=O)[C@H](CC(C)C)NC(=O)[C@](C)(Cc1ccccc1)NC(=O)[C@H](CCCCN)NC(=O)[C@H](CO)NC(=O)[C@@H](NC(=O)[C@H](CC(=O)O)NC(=O)[C@H](CO)NC(=O)[C@@H](NC(=O)[C@](C)(Cc1ccccc1)NC(=O)[C@H](CO)NC(=O)CNC(=O)[C@H](Cc1c[nH]cn1)NC(=O)C(C)(C)NC(=O)[C@@H](N)Cc1c[nH]cn1)[C@@H](C)O)C(C)C)C(C)C)C(=O)N[C@@H](C)C(=O)N[C@@H](CC(N)=O)C(=O)N[C@H](C(=O)O)[C@@H](C)O [Peptide 303] (H-H[Aib]HGS[αMeF]TSDVSK[αMeF]LDSRAAK([AEEA-AEEA-γGlu-C18 diacid])D[αMeF]VQ[Aib]IANT-OH) | 0.0991 | 2.0 | 0.0996
2 | CC[C@H](C)[C@H](NC(=O)C(C)(C)NC(=O)[C@H](CCC(N)=O)NC(=O)[C@@H](NC(=O)[C@](C)(Cc1ccccc1)NC(=O)[C@H](CC(=O)O)NC(=O)[C@H](CCCCNC(=O)COCCOCCNC(=O)COCCOCCNC(=O)CC[C@H](NC(=O)CC[C@H](NC(=O)CCCCCCCCCCCCCCCCCCC(=O)O)C(=O)O)C(=O)O)NC(=O)[C@H](C)NC(=O)[C@H](C)NC(=O)[C@H](CCCNC(=N)N)NC(=O)[C@H](CO)NC(=O)[C@H](CC(=O)O)NC(=O)[C@H](CC(C)C)NC(=O)[C@](C)(Cc1ccccc1)NC(=O)[C@H](CCCCN)NC(=O)[C@H](CO)NC(=O)[C@@H](NC(=O)[C@H](CC(=O)O)NC(=O)[C@H](CO)NC(=O)[C@@H](NC(=O)[C@](C)(Cc1ccccc1)NC(=O)[C@H](CO)NC(=O)CNC(=O)[C@H](Cc1c[nH]cn1)NC(=O)C(C)(C)NC(=O)[C@@H](N)Cc1c[nH]cn1)[C@@H](C)O)C(C)C)C(C)C)C(=O)N[C@@H](C)C(=O)N[C@@H](CC(N)=O)C(=O)N[C@H](C(=O)O)[C@@H](C)O [Peptide 304] (H-H[Aib]HGS[αMeF]TSDVSK[αMeF]LDSRAAK([AEEA-AEEA-γGlu-γGlu-C20 diacid])D[αMeF]VQ[Aib]IANT-OH) | 0.239 | 5.7 | 0.687
3 | CC[C@H](C)[C@H](NC(=O)[C@H](Cc1c[nH]c2ccccc12)NC(=O)[C@H](CCC(N)=O)NC(=O)[C@@H](NC(=O)[C@H](Cc1ccccc1)NC(=O)[C@H](CC(=O)O)NC(=O)[C@H](CCCCNC(=O)COCCOCCNC(=O)COCCOCCNC(=O)CC[C@H](NC(=O)CC[C@H](NC(=O)CCCCCCCCCCCCCCCCCCC(=O)O)C(=O)O)C(=O)O)NC(=O)[C@H](C)NC(=O)[C@H](C)NC(=O)[C@H](CCCNC(=N)N)NC(=O)[C@H](CO)NC(=O)[C@H](CC(=O)O)NC(=O)[C@H](CC(C)C)NC(=O)[C@](C)(Cc1ccccc1)NC(=O)[C@H](CCCCN)NC(=O)[C@H](CO)NC(=O)[C@@H](NC(=O)[C@H](CC(=O)O)NC(=O)[C@H](CO)NC(=O)[C@@H](NC(=O)[C@H](Cc1ccccc1)NC(=O)[C@@H](NC(=O)CNC(=O)[C@H](Cc1c[nH]cn1)NC(=O)C(C)(C)NC(=O)[C@@H](N)Cc1c[nH]cn1)[C@@H](C)O)[C@@H](C)O)C(C)C)C(C)C)C(=O)N[C@@H](C)C(=O)N[C@@H](CC(N)=O)C(=O)N[C@H](C(N)=O)[C@@H](C)O [Peptide 305] | 0.211 | 1.5 | 0.155
4 | CC[C@H](C)[C@H](NC(=O)[C@H](Cc1c[nH]c2ccccc12)NC(=O)[C@H](CCC(=O)O)NC(=O)[C@@H](NC(=O)[C@H](Cc1ccccc1)NC(=O)[C@H](CC(=O)O)NC(=O)[C@H](CCCCNC(=O)COCCOCCNC(=O)COCCOCCNC(=O)CC[C@H](NC(=O)CCCCCCCCCCCCCCCCC(=O)O)C(=O)O)NC(=O)[C@H](C)NC(=O)[C@H](C)NC(=O)[C@H](CCCNC(=N)N)NC(=O)[C@H](CO)NC(=O)[C@H](CC(=O)O)NC(=O)[C@H](CC(C)C)NC(=O)[C@](C)(Cc1ccccc1)NC(=O)[C@H](CCCCN)NC(=O)[C@H](CO)NC(=O)[C@@H](NC(=O)[C@H](CC(=O)O)NC(=O)[C@H](CO)NC(=O)[C@@H](NC(=O)[C@H](Cc1ccccc1)NC(=O)[C@@H](NC(=O)CNC(=O)[C@H](CCC(N)=O)NC(=O)C(C)(C)NC(=O)[C@@H](N)Cc1c[nH]cn1)[C@@H](C)O)[C@@H](C)O)C(C)C)C(C)C)C(=O)N[C@@H](C)C(=O)N[C@@H](CC(N)=O)C(=O)N[C@H](C(N)=O)[C@@H](C)O [Peptide 306] | 0.0472 | 32.5 | 0.775
5 | CC[C@H](C)[C@H](NC(=O)[C@H](Cc1c[nH]c2ccccc12)NC(=O)[C@H](CCCNC(=N)N)NC(=O)[C@@H](NC(=O)[C@H](Cc1ccccc1)NC(=O)[C@H](CC(=O)O)NC(=O)[C@H](CCCCNC(=O)COCCOCCNC(=O)COCCOCCNC(=O)CC[C@H](NC(=O)CCCCCCCCCCCCCCCCC(=O)O)C(=O)O)NC(=O)[C@H](C)NC(=O)[C@H](C)NC(=O)[C@H](CCCNC(=N)N)NC(=O)[C@H](CO)NC(=O)[C@H](CC(=O)O)NC(=O)[C@H](CC(C)C)NC(=O)[C@](C)(Cc1ccccc1)NC(=O)[C@H](CCCCN)NC(=O)[C@H](CO)NC(=O)[C@@H](NC(=O)[C@H](CC(=O)O)NC(=O)[C@H](CO)NC(=O)[C@@H](NC(=O)[C@H](Cc1ccccc1)NC(=O)[C@@H](NC(=O)CNC(=O)[C@H](CCC(N)=O)NC(=O)C(C)(C)NC(=O)[C@@H](N)Cc1c[nH]cn1)[C@@H](C)O)[C@@H](C)O)C(C)C)C(C)C)C(=O)N[C@@H](C)C(=O)N[C@@H](CC(N)=O)C(=O)N[C@H](C(N)=O)[C@@H](C)O [Peptide 307] | 0.0222 | 100.5 | 1.13
6 | CC[C@H](C)[C@H](NC(=O)[C@H](Cc1c[nH]c2ccccc12)NC(=O)[C@H](CCC(N)=O)NC(=O)[C@@H](NC(=O)[C@H](Cc1ccccc1)NC(=O)[C@H](CC(=O)O)NC(=O)[C@H](CCCCNC(=O)COCCOCCNC(=O)COCCOCCNC(=O)CC[C@H](NC(=O)CCCCCCCCCCCCCCCCC(=O)O)C(=O)O)NC(=O)[C@H](C)NC(=O)[C@H](C)NC(=O)[C@H](CCCNC(=N)N)NC(=O)[C@@H](NC(=O)[C@H](CC(=O)O)NC(=O)[C@H](CC(C)C)NC(=O)[C@](C)(Cc1ccccc1)NC(=O)[C@H](CCCCN)NC(=O)[C@H](CO)NC(=O)[C@@H](NC(=O)[C@H](CC(=O)O)NC(=O)[C@H](CO)NC(=O)[C@@H](NC(=O)[C@H](Cc1ccccc1)NC(=O)[C@@H](NC(=O)CNC(=O)[C@H](CCC(N)=O)NC(=O)C(C)(C)NC(=O)[C@@H](N)Cc1c[nH]cn1)[C@@H](C)O)[C@@H](C)O)C(C)C)[C@@H](C)O)C(C)C)C(=O)N[C@@H](C)C(=O)N[C@@H](CC(N)=O)C(=O)N[C@H](C(N)=O)[C@@H](C)O [Peptide 308] (H-H[Aib]QGTFTSDVSK[αMeF]LDTRAAK([AEEA-AEEA-γGlu-C18 diacid])DFVQWIANT-NH2; N-terminus assumed) | 0.0275 | 123.4 | 1.72
